In patent US20210299038A1, “METHOD TO PREVENT AND TREAT OCULAR CATARACT BY CALCIUM CHANNEL BLOCKERS, ANGIOTENSIN CONVERTING ENZYME INHIBITORS, AND ANGIOTENSIN RECEPTOR BLOCKERS” (priority 2018, published 2021):

Assays:
[1] = tested on: ocular cataract; assay: Prevention of recurrence of ocular cataract in a successfully treated patient, one eye treated, other eye untreated; assay type: in vivo, human; settings: untreated eye shows recurrence
Description: A composition comprising the calcium channel blocker nifedipine is directly applied to the vitreous surface of one eye while the other eye is left untreated. […] A composition comprising the ACE inhibitor enalapril is directly applied to the vitreous surface of one eye while the other eye is left untreated. […] A composition comprising the angiotensin receptor blocker losartan is directly applied to the vitreous surface of one eye while the other eye is left untreated. […] A composition comprising the calcium channel blocker nifedipine is applied to the eye by intravitreal or intraocular injection while the other eye is left untreated. […] A composition comprising the ACE inhibitor enalapril is applied to the eye by intravitreal or intraocular injection while the other eye is left untreated. […] A composition comprising the angiotensin receptor blocker losartan is applied to the eye by intravitreal or intraocular injection while the other eye is left untreated.

[2] = tested on: ocular cataract; assay: Treatment of a patient diagnosed with ocular cataract, one eye treated, other eye untreated; assay type: in vivo, human
Description: A patient is diagnosed with ocular cataract. A composition comprising the calcium channel blocker nifedipine is directly applied to the vitreous surface of one eye while the other eye is left untreated. […] A patient is diagnosed with ocular cataract. A composition comprising the ACE inhibitor enalapril is directly applied to the vitreous surface of one eye while the other eye is left untreated. […] A patient is diagnosed with ocular cataract. A composition comprising the angiotensin receptor blocker losartan is directly applied to the vitreous surface of one eye while the other eye is left untreated. […] A patient is diagnosed with ocular cataract. A composition comprising the calcium channel blocker nifedipine is applied to the eye by intravitreal or intraocular injection while the other eye is left untreated. […] A patient is diagnosed with ocular cataract. A composition comprising the ACE inhibitor enalapril is applied to the eye by intravitreal or intraocular injection while the other eye is left untreated. […] A patient is diagnosed with ocular cataract. A composition comprising the angiotensin receptor blocker losartan is applied to the eye by intravitreal or intraocular injection while the other eye is left untreated.

[3] = tested on: cataract opacities; settings: 3119 participants aged 55 to 80; after 10 years of supplementation; cited from earlier work
[4] = composition applied by intravitreal or intraocular injection
[5] = composition directly applied to the vitreous surface of one eye

## CCOC(=O)[C@H](CCc1ccccc1)N[C@@H](C)C(=O)N1CCC[C@H]1C(=O)O [enalapril]
[1]; [4]
  development (recurrence) of ocular cataract in treated eye: not develop ocular cataract
[1]; [5]
  development (recurrence) of ocular cataract in treated eye: not develop ocular cataract
[2]; [4]
  symptoms of ocular cataract in treated eye versus untreated eye: reduced symptoms of ocular cataract
[2]; [5]
  symptoms of ocular cataract in treated eye versus untreated eye: reduced symptoms of ocular cataract

## CCCCc1nc(Cl)c(CO)n1Cc1ccc(-c2ccccc2-c2nn[nH]n2)cc1 [losartan]
[1]; [4]
  development (recurrence) of ocular cataract in treated eye: not develop ocular cataract
[1]; [5]
  development (recurrence) of ocular cataract in treated eye: not develop ocular cataract
[2]; [4]
  symptoms of ocular cataract in treated eye versus untreated eye: reduced symptoms of ocular cataract
[2]; [5]
  symptoms of ocular cataract in treated eye versus untreated eye: reduced symptoms of ocular cataract

## CC1=C[C@H](O)CC(C)(C)[C@H]1/C=C/C(C)=C/C=C/C(C)=C/C=C/C=C(C)/C=C/C=C(C)/C=C/C1=C(C)C[C@@H](O)CC1(C)C [lutein]
[3]
  nuclear cataract score opacities: No reduction

## CC1=C(/C=C/C(C)=C/C=C/C(C)=C/C=C/C=C(C)/C=C/C=C(C)/C=C/C2=C(C)C[C@@H](O)CC2(C)C)C(C)(C)C[C@H](O)C1 [zeaxanthin]
[3]
  nuclear cataract score opacities: No reduction
